Read-outs that look alike come from different tables or passages of the source.
Key:
[1] = Bio-distribution of ^64 Cu(PB)2.x DMSO after topical application to rats; assay type: in vivo, male white rats; settings: for Bio-distribution of ^64 Cu as % of Original Applied, Faeces: assumed faecal output; for Bio-distribution of ^64 Cu as % of Original Applied, Blood (20 ml): assumed total blood volume; for Bio-distribution of ^64 Cu as % of Original Applied, Urine: assumed urine output
Method: (1) The copper (II) phenylbutazone complex labelled with ^64 Cu was prepared as follows: Radioactive copper (II) acetate containing 3 mCi of ^64 Cu (A.A.E.C. Lucas Heights) was mixed with copper (II) acetate monohydrate (0.250 g), phenylbutazone (0.964 g) and dissolved in DMSO (10 ml). Glycerol (2.5 ml) was added later.
Six male white rats (average weight 250 g) were anaesthetised with halothane and an area of skin (ca 20 cm^2) immediately below the neck was shaved with electric hair clippers. Two aliquots (each 0.75 ml) were applied to each rat, whilst anaesthetised, over a period of one hour.
Each rat was placed separately in an experimental cage which permitted collection of both urine and faeces. At times of 6, 24 and 48 hours after topical application, two rats were anaesthetised with ether and euthenased by decapitation in a guillotine. Each organ except the thymus, spleen and the adrenals were cut into two samples for more accurate counting. This was done on a Packard automatic γ spectrometer for periods from 1 to 10 minutes.
All counts were corrected to zero time per gram of wet tissue. After 24 and 48 hours, the faeces were dry and the activity in them is not recorded in FIG. 3.
In Table 1, the results for the location in the rats of the ^64 Cu activity at 6, 24 and 48 hours after topical application are shown.

[2] = test system: sodium carrageenan-induced paw oedema; settings: 5 ml/kg, 0.1 M copper (II) acetate containing 0.25 M phenylbutazone in DMSO, controls DMSO
Method: (§1) We have carried out assays for acute anti-inflammatory and anti-arthritic activities by procedures described previously in W. R. Walker, S. J. Beveridge and M. W. Whitehouse, "Anti-inflammatory Activity of a Dermally Applied Copper Salicylate Preparation (Alcusal)", Agents and Actions 10, 38 (1980).
(§2) (a) Male Wistar rats were shaved (ca 20 cm^2) behind the neck and a solution of 0.1 M copper (II) acetate containing 0.25 M phenylbutazone in DMSO was applied (5 ml/kg). The first application was made 2.5 hr before injecting sodium carrageenan solution into the paw (a 0.1 ml injection delivering 1 mg in 0.15 M NaCl) to induce oedema. A second application of the copper phenylbutazone, if made, was at 1.5 hr before the carrageenan was injected.
(§3) The swelling was measured unidimensionally as increase in paw thickness after 2 and 4 hrs using a micrometer screw gauge. Controls were treated with DMSO only.

[3] = test system: hydroxylapatite-induced paw swelling; settings: applied ×2; hydroxylapatite 50 mg/ml, 0.15 ml injected
Method: as §1, §2, §3

[4] = Cu^2+ + 2HPB = [Cu(PB)2] + 2H^+, room temperature, DMSO, absorbance at 430 nm
Method: The following solutions were prepared in DMSO using stock solutions of 0.01 M copper (II) acetate (A) and 0.20 M phenylbutazone (B)
and the spectra were measured using a Varian Techtron 634S UV-visible spectrophotometer and 1 cm cells.
In FIG. 2, a plot of absorbance (arbitrary scale) at 430 nm versus molar ratio of phenylbutazone (HPB) to copper has been made. […]

[5] = test system: arthritis induced by arthritogenic adjuvant (M. tuberculosis in squalane); assay: anti-arthritic activity in established adjuvant arthritis, topical application; assay type: in vivo, PVG x DA rats; settings: day 12 to day 16, once daily 5 ml/kg for 4 days, means ± standard error; for increase in paw thickness (mm), tail: DMSO controls 0.9 ± 0.2; for increase in paw thickness (mm), rear paws: DMSO controls 2.2 ± 0.1
[6] = applied ×1 (2.5 hr before carrageenan)
[7] = applied ×2 (2.5 and 1.5 hr before carrageenan)

Q: With `CCCC[c-]1c(=O)n(-c2ccccc2)n(-c2ccccc2)c1=O.CCCC[c-]1c(=O)n(-c2ccccc2)n(-c2ccccc2)c1=O.[64Cu+2]` [^64 Cu(PB)2.x DMSO] as the compound, how does the “Bio-distribution of ^64 Cu as % of Original Applied, Adrenals” value (shortened to “Bio-distribution of ^64 Cu as % … Adrenals”) ([1]; 6 h) read?
A: Its value is “-- (less than 0.004%)”.

Q: What about the “Bio-distribution of ^64 Cu as % of Original Applied, Brain” value (from here on “Bio-distribution of ^64 Cu as % … Brain”) ([1]; 6 h) of the same compound?
A: Its value is 0.02%.

Q: And the “Bio-distribution of ^64 Cu as % of Original Applied, Heart” value (from here on “Bio-distribution of ^64 Cu as % … Heart”) ([1]; 6 h)?
A: Its value is 0.01%.

Q: What about the “Bio-distribution of ^64 Cu as % of Original Applied, Kidney” value (from here on “Bio-distribution of ^64 Cu as % … Kidney”) ([1]; 6 h) of the same compound?
A: Its value is 0.04%.

Q: What about the “Bio-distribution of ^64 Cu as % of Original Applied, Liver” value (shortened to “Bio-distribution of ^64 Cu as % … Liver”) ([1]; 6 h) of the same compound?
A: The value was 6.22%.

Q: And the “Bio-distribution of ^64 Cu as % of Original Applied, Skin (application site)” value ([1]; 6 h)?
A: The value was 5.34%.

Q: And the “Bio-distribution of ^64 Cu as % of Original Applied, Spleen” value (shortened to “Bio-distribution of ^64 Cu as % … Spleen”) ([1]; 6 h)?
A: The value was 0.01%.

Q: What about the “Bio-distribution of ^64 Cu as % of Original Applied, Thymus” value (“Bio-distribution of ^64 Cu as % … Thymus” below) ([1]; 6 h) of the same compound?
A: Its value is 0.01%.

Q: And the “Bio-distribution of ^64 Cu as % of Original Applied, Faeces” value (from here on “Bio-distribution of ^64 Cu as % … Faeces”) ([1]; 6 h)?
A: Its value is 0.07%.

Q: And the “Bio-distribution of ^64 Cu as % of Original Applied, Blood (20 ml)” value (shortened to “Bio-distribution of ^64 Cu as % … (20 ml)”) ([1]; 6 h)?
A: Its value is 0.09%.

Q: And the “Bio-distribution of ^64 Cu as % of Original Applied, Urine” value (“Bio-distribution of ^64 Cu as % … Urine” for short) ([1]; 6 h)?
A: The value was 0.04%.

Q: What about the “Bio-distribution of ^64 Cu as % … Adrenals” value ([1]; 24 h) of the same compound?
A: Its value is “-- (less than 0.004%)”.

Q: And the “Bio-distribution of ^64 Cu as % … Brain” value ([1]; 24 h)?
A: The value was 0.01%.

Q: What about the “Bio-distribution of ^64 Cu as % … Heart” value ([1]; 24 h) of the same compound?
A: Its value is “-- (less than 0.004%)”.

Q: What about the “Bio-distribution of ^64 Cu as % … Kidney” value ([1]; 24 h) of the same compound?
A: Its value is 0.04%.

Q: What about the “Bio-distribution of ^64 Cu as % … Liver” value ([1]; 24 h) of the same compound?
A: Its value is 0.17%.

Q: And the “Bio-distribution of ^64 Cu as % of Original Applied, Skin (application site)” value ([1]; 24 h)?
A: Its value is 3.81%.

Q: What about the “Bio-distribution of ^64 Cu as % … Spleen” value ([1]; 24 h) of the same compound?
A: The value was “-- (less than 0.004%)”.

Q: And the “Bio-distribution of ^64 Cu as % … Thymus” value ([1]; 24 h)?
A: Its value is “-- (less than 0.004%)”.

Q: And the “Bio-distribution of ^64 Cu as % … Faeces” value ([1]; 24 h)?
A: Its value is 28.9%.

Q: What about the “Bio-distribution of ^64 Cu as % … (20 ml)” value ([1]; 24 h) of the same compound?
A: The value was 0.08%.

Q: And the “Bio-distribution of ^64 Cu as % … Urine” value ([1]; 24 h)?
A: Its value is 0.21%.

Q: What about the “Bio-distribution of ^64 Cu as % … Adrenals” value ([1]; 48 h) of the same compound?
A: The value was “-- (less than 0.004%)”.

Q: What about the “Bio-distribution of ^64 Cu as % … Brain” value ([1]; 48 h) of the same compound?
A: The value was 0.01%.

Q: What about the “Bio-distribution of ^64 Cu as % … Heart” value ([1]; 48 h) of the same compound?
A: The value was “-- (less than 0.004%)”.

Q: And the “Bio-distribution of ^64 Cu as % … Kidney” value ([1]; 48 h)?
A: The value was 0.04%.

Q: What about the “Bio-distribution of ^64 Cu as % … Liver” value ([1]; 48 h) of the same compound?
A: The value was 0.15%.

Q: And the “Bio-distribution of ^64 Cu as % of Original Applied, Skin (application site)” value ([1]; 48 h)?
A: Its value is 1.02%.

Q: What about the “Bio-distribution of ^64 Cu as % … Spleen” value ([1]; 48 h) of the same compound?
A: Its value is 0.01%.

Q: What about the “Bio-distribution of ^64 Cu as % … Thymus” value ([1]; 48 h) of the same compound?
A: The value was “-- (less than 0.004%)”.

Q: And the “Bio-distribution of ^64 Cu as % … Faeces” value ([1]; 48 h)?
A: The value was 49.9%.

Q: And the “Bio-distribution of ^64 Cu as % … (20 ml)” value ([1]; 48 h)?
A: Its value is 0.08%.

Q: And the “Bio-distribution of ^64 Cu as % … Urine” value ([1]; 48 h)?
A: The value was 0.40%.

Q: And the “^64 Cu found in the faeces” value ([1]; after two days, topical application, 2880 min)?
A: Its value is “about 50%”.

Q: And the “clearance of ^64 Cu from the system” value ([1]; result in words)?
A: Its value is “cleared from the system in several days”.

Q: What about the “activity of ^64 Cu in the skin at the site of application” value ([1]; result in words, 6 to 48 h) of the same compound?
A: The value was “decreases linearly with time”.

Q: Which results are given for `CCCC[c-]1c(=O)n(-c2ccccc2)n(-c2ccccc2)c1=O.CCCC[c-]1c(=O)n(-c2ccccc2)n(-c2ccccc2)c1=O.[Cu+2]` [[Cu(PB)2].x(DMSO), copper (II) di(phenylbutazone)]?
A: absorption after topical application ([1]; result in words): readily enters the bloom stream; dermal penetration ([1]; result in words): excellent dermal penetration; % inhibition of paw swelling at 2 hr [2, 6]: 34%; % inhibition of paw swelling at 4 hr [2, 6]: 33%; % inhibition of paw swelling at 2 hr [2, 7]: 65%; % inhibition of paw swelling at 4 hr [2, 7]: 71%; % inhibition of paw swelling at 2 hr [3]: 42%; % inhibition of paw swelling at 4 hr [3]: 76%; equilibrium constant, log K ([4]; listed as Cu(PB)2. xDMSO): ~4.7; equilibrium constant, log K ([4]; listed as [Cu(PB)2 ]): ~ 4.7; increase in paw thickness (mm), tail [5]: 0.3 ± 0.2 mm; increase in paw thickness (mm), rear paws [5]: 0.4 ± 0.1 mm

Q: Which “increase in paw thickness (mm), tail” value [5] does the source give for `CCCCC1C(=O)N(c2ccccc2)N(c2ccccc2)C1=O` [HPB, phenylbutazone, reference compound] here?
A: Its value is 0.3 ± 0.1 mm.

Q: What about the “increase in paw thickness (mm), rear paws” value [5] of the same compound?
A: The value was 1.0 ± 0.2 mm.

Source: US4539206A, “Topical compositions containing copper (II) complexes of 3,5-dioxo-pyrazolidine derivatives and methods of combatting inflammation with them” (Alcusal Incorporated Pty. Ltd., priority 1981, dated 1985)
